Test system: COX-2 gene expression
Assay: Effects of test compounds on COX-2 gene expression in gastric cancer cell line MKN-45 (real-time PCR)
Format: cell-based, human
Conditions: MKN-45 cells, test compound 1 μM, 16 hours, vs DMSO control = 100%, mean of triplicate
Procedure: The human gastric cancer cell line MKN-45 obtained from JCRB (Japanese Collection of Research Bioresources) was cultured in Iscove's Modified Dulbecco's Medium (product of GIBCO) containing 10% fetal calf serum for 24 hours using a 6-well plate and a 5% CO2 incubator (37° C., 5% CO2). Test compound solutions prepared by diluting each test compound with DMSO (solvent) to a final concentration of 1 μM, and the same amount of DMSO as a control solution (containing no test compound) were added to the wells of the 6-well plate, and the cells were cultured in a CO2 incubator (37° C., 5% CO2) for 16 hours.
The cells were recovered, and Total RNA was prepared from the cells using Trizole reagent (product of Invitrogen) according to the standard method. Real-time PCR was performed using TaqManO Gene Expression Assays for human COX-2 (product of Applied Biosystems), and the amount of COX-2 mRNA in each test-compound-treated cell were determined. […]
PCR was performed according to the manufacturer's instructions for TaqMan® Gene Expression Assays (product of Applied Biosystems). […] The amount of each mRNA was determined from the calibration curve using the ABI PRISM 7000 Sequence Detection System. […]

Compound: COc1ccc(CC2SC(=S)NC2=O)c2c1N(CCC(C)C)C(=O)CC2 (stereo not shown) [Test Compound 965]
- COX-2 gene expression inhibition (%): >20%
